# Experimental data as given in patent US8691855B2, “Compounds, isomer thereof, or pharmaceutically acceptable salts thereof as vanilloid receptor antagonist and pharmaceutical compositions containing the same” (Amorepacific Corporation, priority 2008, dated 2014).
# Target: T1, vanilloid receptor (Rattus norvegicus, UniProt O35433)
# T1 construct: DRG nerve cells from the primary culture of 2 days were equilibrated; endogenous in cells; host or cells: primary culture of dorsal root ganglion neurons from neonatal SD rats
# T1 sequence (O35433 whole entry): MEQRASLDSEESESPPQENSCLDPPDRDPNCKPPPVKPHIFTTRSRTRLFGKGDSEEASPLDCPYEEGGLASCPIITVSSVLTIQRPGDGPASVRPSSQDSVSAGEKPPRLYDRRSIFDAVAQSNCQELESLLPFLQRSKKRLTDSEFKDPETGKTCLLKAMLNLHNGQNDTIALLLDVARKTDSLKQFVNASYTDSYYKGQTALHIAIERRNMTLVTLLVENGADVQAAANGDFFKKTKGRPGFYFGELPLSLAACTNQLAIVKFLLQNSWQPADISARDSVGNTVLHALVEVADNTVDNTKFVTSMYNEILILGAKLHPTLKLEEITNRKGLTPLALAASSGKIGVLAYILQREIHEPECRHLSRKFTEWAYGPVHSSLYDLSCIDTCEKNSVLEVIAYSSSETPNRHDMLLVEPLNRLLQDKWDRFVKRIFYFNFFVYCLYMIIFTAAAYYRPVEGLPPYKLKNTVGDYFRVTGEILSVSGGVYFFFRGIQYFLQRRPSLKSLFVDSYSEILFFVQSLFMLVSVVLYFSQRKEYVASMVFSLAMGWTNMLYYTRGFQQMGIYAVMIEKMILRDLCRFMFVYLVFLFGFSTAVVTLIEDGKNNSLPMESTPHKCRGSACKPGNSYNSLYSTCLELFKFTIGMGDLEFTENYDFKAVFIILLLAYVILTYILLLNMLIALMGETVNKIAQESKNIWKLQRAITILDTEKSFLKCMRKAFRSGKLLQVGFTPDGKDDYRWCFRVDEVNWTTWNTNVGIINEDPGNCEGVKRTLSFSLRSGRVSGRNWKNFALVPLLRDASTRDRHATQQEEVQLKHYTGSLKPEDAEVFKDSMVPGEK
# Experiment: 45Ca influx test (antagonist calcium uptake test) in rat DRG neurons stimulated with capsaicin
# Type: cell-based
# Settings: neonatal SD rat DRG neurons, capsaicin 0.5 μM; for IC50: 45Ca
# Experimental: 1) Separation of spinal dorsal root ganglia (DRG) in newborn rats and primary culture thereof
# Neonatal (2-3 clay old or younger than 2-3 day old) SD rats were put in ice for 5 minutes to anesthetize and disinfected with 70% ethanol. DRG of all part of spinal cord were dissected (Wood et al., 1988, J. Neurosci. 8, pp 3208-3220) and collected in DME/F12 medium to which 1.2 g/l sodium bicarbonate and 50 mg/l gentamycin were added. The DRG were incubated sequentially at 37° C. for 30 mins in 200 U/ml collagenase and 2.5 mg/ml trypsin, separately. The ganglia were washed twice with DME/F12 medium supplemented with 10% horse serum, triturated through a fire-polished Pasteur pipette, filtered through Nitex 80 membrane to obtain single cell suspension and the suspension was washed once more. This was subjected to centrifugation, then resuspended in cell culture medium at certain level of cell density. As the cell culture medium, DME/F12 medium supplemented with 10% horse serum was diluted with identical medium conditioned by C6 glioma cells 2 clays on a confluent monolayer (1:1), and NGF (Nerve Growth Factor) was added to adjust 200 ng/ml as final concentration. After the cells were grown 2 days in medium where cytosine arabinoside (Ara-C, 100 μM) was added to kill dividing nonneuronal cells, medium was changed to one without Ara-C. The resuspended cells were plated at a density of 1500-2000 neurons/well onto Terasaki plates previously coated with 10 μg/ml poly-D-ornithine.
# 2) ^45Ca Influx Experiments
# DRG nerve cells from the primary culture of 2 days were equilibrated by washing 4 times with HEPES (10 mM, pH 7.4)-buffered Ca^2+, Mg^2+-free HBSS (H-HBSS). The solution in each well was removed from the individual well. Medium containing the test compound plus capsaicin (final concentration 0.5 μM) and ^45Ca (final concentration 10 μCi/ml) in H-HBSS was added to each well and incubated at room temperature for 10 nuns. Terasaki plates were washed five times with H-HBSS and dried at room temperature. To each well, 0.3% SDS (10 μl) was added to elute ^45Ca. After the addition of scintillation cocktail of into each well, the amount of ^45Ca influx into neuron was measured by counting radioactivity. Antagonistic activities of test compounds against vanilloid receptor were calculated as percent of the inhibition of maximal response of capsaicin at a concentration of 0.5 μM.
SMILES,IC50 [nM],"inhibition at 10 µM (DRG neuron, @10 μM, read-out: Antagonist Calcium Uptake Test, percent inhibition of capsaicin response) [%]"
"C[C@@H](NC(=O)c1coc(N2CCCC3CCCCC32)n1)c1cc(F)c(NS(C)(=O)=O)c(F)c1 (some centres unmarked) [Example 19, 2-(Octahydro-quinolin-1-yl)-oxazole-4-carboxylic acid [1-(3,5-difluoro-4-methanesulfonylamino-phenyl)-ethyl]-amide]",610,–
"CC(C)c1cccc(Oc2ccc(C(=O)N[C@H](C)c3cc(F)c(NS(C)(=O)=O)c(F)c3)s2)c1 [Example 21, 5-(3-Isopropyl-phenoxy)-thiophene-2-carboxylic acid [1-(3,5-difluoro-4-methanesulfonylamino-phenyl)-ethyl]-amide]",–,56
"C[C@@H](NC(=O)c1coc(Oc2ccc3c(c2)CCC3)n1)c1cc(F)c(NS(C)(=O)=O)c(F)c1 [Example 22, 2-(Indan-5-yloxy)-oxazole-4-carboxylic acid [1-(3,5-difluoro-4-methanesulfonylamino-phenyl)-ethyl]-amide]",1900,–
"C[C@@H](NC(=O)c1coc(Oc2ccc3ncccc3c2)n1)c1cc(F)c(NS(C)(=O)=O)c(F)c1 [Example 23, 2-(Quinolin-6-yloxy)-oxazole-4-carboxylic acid [1-(3,5-difluoro-4-methanesulfonylamino-phenyl)-ethyl]-amide]",11900,–
"C[C@@H](NC(=O)c1coc(Oc2cccc3cccnc23)n1)c1cc(F)c(NS(C)(=O)=O)c(F)c1 [Example 24, 2-(Quinolin-8-yloxy)-oxazole-4-carboxylic acid [1-(3,5-difluoro-4-methanesulfonylamino-phenyl)-ethyl]-amide]",> 10000,–
"C[C@@H](NC(=O)c1coc(Oc2cc(C(F)(F)F)ccn2)n1)c1cc(F)c(NS(C)(=O)=O)c(F)c1 [Example 25, 2-(4-Trifluoromethyl-pyridin-2-yloxy)-oxazole-4-carboxylic acid [1-(3,5-difluoro-4-methanesulfonylamino-phenyl)-ethyl]-amide]",> 10000,–
C[C@@H](NC(=O)c1coc(Oc2cccc(Cl)n2)n1)c1cc(F)c(NS(C)(=O)=O)c(F)c1 [Example 26],> 10000,–
"C#Cc1cccc(Oc2nc(C(=O)N[C@H](C)c3cc(F)c(NS(C)(=O)=O)c(F)c3)co2)c1 [Example 27, 2-(3-Ethynyl-phenoxy)-oxazole-4-carboxylic acid [1-(3,5-difluoro-4-methanesulfonylamino-phenyl)-ethyl]-amide]",1600,–
"C=C1CCc2c(Oc3nc(C(=O)N[C@H](C)c4cc(F)c(NS(C)(=O)=O)c(F)c4)co3)cccc21 [Example 28, 2-(1-Methylene-indan-4-yloxy)-oxazole-4-carboxylic acid [1-(3,5-difluoro-4-methanesulfonylamino-phenyl)-ethyl]-amide]",820,–
"CCc1cccc(Oc2nc(C(=O)N[C@H](C)c3cc(F)c(NS(C)(=O)=O)c(F)c3)co2)c1 [Example 29, 2-(3-Ethyl-phenoxy)-oxazole-4-carboxylic acid [1-(3,5-difluoro-4-methanesulfonylamino-phenyl)-ethyl]-amide]",280,–
"CC(C)c1cccc(Oc2nc(C(=O)N[C@H](C)c3cc(F)c(NS(C)(=O)=O)c(F)c3)cs2)c1 [Example 31, 2-(3-Isopropyl-phenoxy)-thiazole-4-carboxylic acid [1-(3,5-difluoro-4-methanesulfonylamino-phenyl)-ethyl]-amide]",2000,–
"CCCc1cc(C(F)(F)F)ccc1Oc1nc(C(=O)N[C@H](C)c2cc(F)c(NS(C)(=O)=O)c(F)c2)co1 [Example 33, 2-(2-Propyl-4-trifluoromethyl-phenoxy)-oxazole-4-carboxylic acid [1-(3,5-difluoro-4-methanesulfonylamino-phenyl)-ethyl]-amide]",4900,–
"C[C@@H](NC(=O)c1coc(Oc2cc(C(F)(F)F)cc(C(F)(F)F)c2)n1)c1cc(F)c(NS(C)(=O)=O)c(F)c1 [Example 36, 2-(3,5-Bis-trifluoromethyl-phenoxy)-oxazole-4-carboxylic acid [1-(3,5-difluoro-4-methanesulfonylamino-phenyl)-ethyl]-amide]",1300,–
"C=C1CCCc2c(Oc3nc(C(=O)N[C@H](C)c4cc(F)c(NS(C)(=O)=O)c(F)c4)co3)cccc21 [Example 37, 2-(5-Methylene-5,6,7,8-tetrahydro-naphthalen-1-yloxy)-oxazole-4-carboxylic acid [1-(3,5-difluoro-4-methanesulfonylamino-phenyl)-ethyl]-amide]",410,–
"CCC1CCc2c(Oc3nc(C(=O)N[C@H](C)c4cc(F)c(NS(C)(=O)=O)c(F)c4)co3)cccc21 (some centres unmarked) [Example 38, 2-(1-Ethyl-indan-4-yloxy)-oxazole-4-carboxylic acid [1-(3,5-difluoro-4-methanesulfonylamino-phenyl)-ethyl]-amide]",400,–
"CC1CCCc2c(Oc3nc(C(=O)N[C@H](C)c4cc(F)c(NS(C)(=O)=O)c(F)c4)co3)cccc21 (some centres unmarked) [Example 39, 2-(5-Methyl-5,6,7,8-tetrahydro-naphthalen-1-yloxy)-oxazole-4-carboxylic acid [1-(3,5-difluoro-4-methanesulfonylamino-phenyl)-ethyl]-amide]",290,–
"CC(C)c1cc(Oc2nc(C(=O)N[C@H](C)c3cc(F)c(NS(C)(=O)=O)c(F)c3)co2)cc(C(F)(F)F)c1 [Example 40, 2-(3-Isopropyl-5-trifluoromethyl-phenoxy)-oxazole-4-carboxylic acid [1-(3,5-difluoro-4-methanesulfonylamino-phenyl)-ethyl]-amide]",1100,–
"CCCc1ccc(C(F)(F)F)cc1Oc1nc(C(=O)N[C@H](C)c2cc(F)c(NS(C)(=O)=O)c(F)c2)co1 [Example 41, 2-(2-Propyl-5-trifluoromethyl-phenoxy)-oxazole-4-carboxylic acid [1-(3,5-difluoro-4-methanesulfonylamino-phenyl)-ethyl]-amide]",190,–
"C=C(C)c1cc(Oc2nc(C(=O)N[C@H](C)c3cc(F)c(NS(C)(=O)=O)c(F)c3)co2)cc(C(F)(F)F)c1 [Example 43, 2-(3-Isopropenyl-5-trifluoromethyl-phenoxy)-oxazole-4-carboxylic acid [1-(3,5-difluoro-4-methanesulfonylamino-phenyl)-ethyl]-amide]",960,–
"C[C@@H](NC(=O)c1coc(Nc2cccc(C(F)(F)F)c2)n1)c1cc(F)c(NS(C)(=O)=O)c(F)c1 [Example 44, 2-(3-Trifluoromethyl-phenylamino)-oxazole-4-carboxylic acid [1-(3,5-difluoro-4-methanesulfonylamino-phenyl)-ethyl]-amide]",5500,–
"C[C@@H](NC(=O)c1coc(Oc2cccc(C(F)(F)F)c2Cl)n1)c1cc(F)c(NS(C)(=O)=O)c(F)c1 [Example 45, 2-(2-Chloro-3-trifluoromethyl-phenoxy)-oxazole-4-carboxylic acid [1-(3,5-difluoro-4-methanesulfonylamino-phenyl)-ethyl]-amide]",770,–
"Cc1ccc(C(C)C)cc1Oc1nc(C(=O)N[C@H](C)c2cc(F)c(NS(C)(=O)=O)c(F)c2)co1 [Example 47, 2-(5-Isopropyl-2-methyl-phenoxy)-oxazole-4-carboxylic acid [1-(3,5-difluoro-4-methanesulfonylamino-phenyl)-ethyl]-amide]",620,–
"CC(C)Oc1cccc(Oc2nc(C(=O)N[C@H](C)c3cc(F)c(NS(C)(=O)=O)c(F)c3)co2)c1 [Example 48, 2-(3-Isopropoxy-phenoxy)-oxazole-4-carboxylic acid [1-(3,5-difluoro-4-methanesulfonylamino-phenyl)-ethyl]-amide]",1200,–
"C[C@@H](NC(=O)c1coc(Oc2cccc3c2OC2(CCCC2)O3)n1)c1cc(F)c(NS(C)(=O)=O)c(F)c1 [Example 49, 2-(2,3-Dihydroxy-phenoxy)-oxazole-4-carboxylic acid [1-(3,5-difluoro-4-methanesulfonylamino-phenyl)-ethyl]-amide, cyclopentanone ketal]",600,–
"Cc1ccc(C2CCCCC2)c(Oc2nc(C(=O)N[C@H](C)c3cc(F)c(NS(C)(=O)=O)c(F)c3)co2)c1 [Example 50, 2-(2-Cyclohexyl-5-methyl-phenoxy)-oxazole-4-carboxylic acid [1-(3,5-difluoro-4-methanesulfonylamino-phenyl)-ethyl]-amide]",1100,–
"C[C@@H](NC(=O)c1coc(Oc2cccc(C3CCCC3)c2)n1)c1cc(F)c(NS(C)(=O)=O)c(F)c1 [Example 51, 2-(3-Cyclopentyl-phenoxy)-oxazole-4-carboxylic acid [1-(3,5-difluoro-4-methanesulfonylamino-phenyl)-ethyl]-amide]",1100,–
